# Measurements: ChEMBL document CHEMBL1201862, “PubChem BioAssay data set” (2004)
# Active and inactive are the calls of the source.
# What was measured:
# [1] = target: 26S proteasome non-ATPase regulatory subunit 14 (Homo sapiens, UniProt O00487); test: inhibition of proteasome subunit RPN11 – biochemical, fluorescence polarization, uHTS hits, confirmation (AID 602368); assay type: functional
# [2] = target: 72 kDa type IV collagenase (Homo sapiens, UniProt P08253); test: Dose Response validation of uHTS RPN11 inhibitor hits using a MMP-2 Fluorescence assay.; assay type: functional
# Prothrombin = Prothrombin (Bos taurus, UniProt P00735); test: thrombin protease inhibitors – biochemical, fluorescence polarization, uHTS hits, dose response (AID 602369); assay type: functional
# [3] = target: Peroxisome proliferator-activated receptor gamma/Nuclear receptor coactivator 1 (Homo sapiens, UniProt P37231); test: (§1) TR-FRET dose response biochemical High Throughput Screening assay for agonists of the steroid receptor coactivator 1 (SRC-1) recruitment by the peroxisome proliferator-activated receptor gamma (PPAR gamma): non-selective agonists. [Related pubchem assays (depositor defined):AID1300, AID1808, AID504735, AID631]; assay type: protein assay
# [4] = target: Peroxisome proliferator-activated receptor gamma/Nuclear receptor coactivator 3 (Homo sapiens, UniProt P37231); test: as §1, with “3 (SRC-3)” for “1 (SRC-1)”, “assays: 1301 (Confirmation screen.), 1048 (Primary screen.)]” for “assays (depositor defined):AID1300, AID1808, AID504735, AID631]”; assay type: functional
# Peroxisome proliferator-activated receptor gamma/Nuclear receptor coactivator 3, sequence (P37231 whole entry): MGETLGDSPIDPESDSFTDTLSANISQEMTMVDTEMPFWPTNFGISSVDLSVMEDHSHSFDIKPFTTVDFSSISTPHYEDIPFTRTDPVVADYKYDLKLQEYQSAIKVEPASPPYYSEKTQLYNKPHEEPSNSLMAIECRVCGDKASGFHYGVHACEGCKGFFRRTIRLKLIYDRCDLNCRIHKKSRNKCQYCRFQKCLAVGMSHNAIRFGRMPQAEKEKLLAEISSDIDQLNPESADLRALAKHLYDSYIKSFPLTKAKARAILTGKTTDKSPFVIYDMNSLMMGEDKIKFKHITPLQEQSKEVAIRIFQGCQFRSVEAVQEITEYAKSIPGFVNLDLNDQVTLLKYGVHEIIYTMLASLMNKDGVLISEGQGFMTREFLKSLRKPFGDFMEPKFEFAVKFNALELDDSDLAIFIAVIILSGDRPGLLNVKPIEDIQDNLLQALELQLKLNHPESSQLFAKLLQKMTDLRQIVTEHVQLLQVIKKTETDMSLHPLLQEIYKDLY
# Peroxisome proliferator-activated receptor gamma/Nuclear receptor coactivator 3, sequence (Q9Y6Q9 whole entry, further chain): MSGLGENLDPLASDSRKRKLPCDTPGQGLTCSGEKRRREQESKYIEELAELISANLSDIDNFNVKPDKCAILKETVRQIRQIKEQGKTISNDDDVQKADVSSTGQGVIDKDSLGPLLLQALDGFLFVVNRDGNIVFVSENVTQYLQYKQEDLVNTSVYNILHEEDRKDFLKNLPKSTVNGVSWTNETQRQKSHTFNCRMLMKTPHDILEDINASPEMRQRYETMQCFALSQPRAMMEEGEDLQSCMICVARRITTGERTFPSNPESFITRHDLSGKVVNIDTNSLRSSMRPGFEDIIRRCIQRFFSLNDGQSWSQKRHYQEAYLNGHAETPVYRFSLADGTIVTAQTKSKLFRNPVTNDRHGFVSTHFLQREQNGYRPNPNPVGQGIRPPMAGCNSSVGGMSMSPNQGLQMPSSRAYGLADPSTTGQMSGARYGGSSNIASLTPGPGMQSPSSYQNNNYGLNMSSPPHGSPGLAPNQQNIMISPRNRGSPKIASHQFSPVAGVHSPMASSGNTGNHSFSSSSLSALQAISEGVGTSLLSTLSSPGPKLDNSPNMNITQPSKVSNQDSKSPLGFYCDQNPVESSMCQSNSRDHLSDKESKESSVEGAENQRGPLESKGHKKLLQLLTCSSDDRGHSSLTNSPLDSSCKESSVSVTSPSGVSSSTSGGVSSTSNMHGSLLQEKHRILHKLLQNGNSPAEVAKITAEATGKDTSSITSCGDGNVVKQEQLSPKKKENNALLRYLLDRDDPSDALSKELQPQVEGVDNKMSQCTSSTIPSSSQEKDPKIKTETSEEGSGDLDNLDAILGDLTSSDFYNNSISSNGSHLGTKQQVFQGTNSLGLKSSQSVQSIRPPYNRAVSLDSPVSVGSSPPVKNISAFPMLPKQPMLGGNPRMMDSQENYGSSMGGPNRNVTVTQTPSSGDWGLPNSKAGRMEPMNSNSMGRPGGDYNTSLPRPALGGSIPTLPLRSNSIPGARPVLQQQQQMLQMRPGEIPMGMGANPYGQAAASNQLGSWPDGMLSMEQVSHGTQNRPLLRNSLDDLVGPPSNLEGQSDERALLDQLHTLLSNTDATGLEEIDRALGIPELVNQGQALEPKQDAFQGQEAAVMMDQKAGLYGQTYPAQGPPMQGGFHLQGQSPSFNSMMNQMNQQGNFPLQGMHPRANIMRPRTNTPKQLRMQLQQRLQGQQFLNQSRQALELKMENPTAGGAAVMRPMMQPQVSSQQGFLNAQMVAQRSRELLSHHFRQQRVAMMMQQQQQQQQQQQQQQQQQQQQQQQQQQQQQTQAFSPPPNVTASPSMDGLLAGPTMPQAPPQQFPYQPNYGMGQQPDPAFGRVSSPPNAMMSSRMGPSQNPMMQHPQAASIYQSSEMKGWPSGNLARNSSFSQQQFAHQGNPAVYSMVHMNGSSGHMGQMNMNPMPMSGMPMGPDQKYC
# [5] = target: Peroxisome proliferator-activated receptor gamma/Nuclear receptor coactivator 2 (Homo sapiens, UniProt P37231); test: TR-FRET dose response biochemical High Throughput Screening assay for agonists of the steroid receptor coactivator 2 (SRC-2) recruitment by the peroxisome proliferator-activated receptor gamma (PPAR gamma): non-selective agonists. [Related pubchem assays: 1297, 1032 ]; assay type: functional
# Peroxisome proliferator-activated receptor gamma/Nuclear receptor coactivator 2, sequence (P37231 whole entry): as the sequence (P37231 whole entry) above
# Peroxisome proliferator-activated receptor gamma/Nuclear receptor coactivator 2, sequence (Q15596 whole entry, further chain): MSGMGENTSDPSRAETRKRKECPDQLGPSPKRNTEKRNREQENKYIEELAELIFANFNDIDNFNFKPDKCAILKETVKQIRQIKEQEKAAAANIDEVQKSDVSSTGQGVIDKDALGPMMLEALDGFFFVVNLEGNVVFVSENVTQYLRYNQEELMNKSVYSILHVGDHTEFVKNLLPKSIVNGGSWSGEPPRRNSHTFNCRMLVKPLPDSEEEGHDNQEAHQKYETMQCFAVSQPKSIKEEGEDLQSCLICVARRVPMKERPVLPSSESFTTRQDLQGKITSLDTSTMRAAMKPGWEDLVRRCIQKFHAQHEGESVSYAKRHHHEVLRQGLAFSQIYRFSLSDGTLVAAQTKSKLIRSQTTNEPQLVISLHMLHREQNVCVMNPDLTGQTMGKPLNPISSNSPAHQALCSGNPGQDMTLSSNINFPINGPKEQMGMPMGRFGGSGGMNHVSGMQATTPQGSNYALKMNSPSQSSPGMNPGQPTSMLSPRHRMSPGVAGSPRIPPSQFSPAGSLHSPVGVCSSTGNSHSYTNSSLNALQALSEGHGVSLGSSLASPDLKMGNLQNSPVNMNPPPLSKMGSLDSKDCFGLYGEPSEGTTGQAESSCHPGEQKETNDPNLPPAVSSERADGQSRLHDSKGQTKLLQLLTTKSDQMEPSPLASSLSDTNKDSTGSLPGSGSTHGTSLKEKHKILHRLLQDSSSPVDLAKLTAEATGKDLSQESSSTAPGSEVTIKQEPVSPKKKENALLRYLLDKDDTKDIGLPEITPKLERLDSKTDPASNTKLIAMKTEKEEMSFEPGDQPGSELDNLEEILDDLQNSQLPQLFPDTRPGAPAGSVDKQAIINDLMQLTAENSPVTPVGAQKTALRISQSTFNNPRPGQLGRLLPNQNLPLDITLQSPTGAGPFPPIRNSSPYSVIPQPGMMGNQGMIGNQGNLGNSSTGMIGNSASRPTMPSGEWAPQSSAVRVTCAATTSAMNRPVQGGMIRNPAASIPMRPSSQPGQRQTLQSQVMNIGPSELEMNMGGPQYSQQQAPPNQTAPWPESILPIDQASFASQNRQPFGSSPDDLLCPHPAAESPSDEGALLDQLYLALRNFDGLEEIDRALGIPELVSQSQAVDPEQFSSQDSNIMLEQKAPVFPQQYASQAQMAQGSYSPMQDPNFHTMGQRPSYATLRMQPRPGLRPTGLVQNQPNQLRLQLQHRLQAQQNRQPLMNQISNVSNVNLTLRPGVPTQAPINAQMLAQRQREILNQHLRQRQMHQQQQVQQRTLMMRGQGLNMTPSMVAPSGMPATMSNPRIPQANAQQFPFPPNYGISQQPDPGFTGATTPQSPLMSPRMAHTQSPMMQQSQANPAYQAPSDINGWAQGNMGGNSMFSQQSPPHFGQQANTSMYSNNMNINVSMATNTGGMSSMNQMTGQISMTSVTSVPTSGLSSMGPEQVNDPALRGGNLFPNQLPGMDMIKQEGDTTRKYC
# Vero = test: cells; assay type: functional; details: Chlorocebus sabaeus
# BJ [6] = test: BJ-TERT fibroblast viability loss – cell-based, RAS-independent, luminescence, dose response (AID 1933); assay type: functional; details: Homo sapiens
# BJ [7] = test: cells; assay type: functional, cell-based; details: Homo sapiens
# BJ [8] = test: BJ-TERT-LT-ST fibroblast viability loss – cell-based, RAS-independent, luminescence, dose response (AID 1935); assay type: functional; details: Homo sapiens;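 note: BJ fibroblasts immortalized with TERT plus LT and ST oncogenes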
# [9] = DRD fibroblast viability loss – cell-based, non-viral oncogenic, luminescence, dose response (AID 1934); assay type: functional; details: Homo sapiens
# BJ [10] = test: growth inhibition of engineered Ras-driven BJ cells – cell-based, alamar blue fluorescence, cherrypicked samples, dose response (AID 2631); assay type: functional; details: Homo sapiens;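 note: confirmatory dose-response assay in RAS-dependent BJ fibroblasts engineered with TERT, LT and ST, with cytotoxicity read by fluorescence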
# Beta-galactosidase = Beta-galactosidase (Escherichia coli, UniProt Q8VNN2); test: PubChem AID 485352; assay type: functional
# [11] = target: T1, Type-1 angiotensin II receptor (Homo sapiens, UniProt P30556); test: antagonism of angiotensin II type 1 receptor – cell-based, uHTS hits, selectivity assay for APJ receptor antagonist project, dose response (AID 463214); assay type: functional;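 note: antagonist potency against angiotensin II stimulated AT1 response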
# T1 sequence (P30556 whole entry): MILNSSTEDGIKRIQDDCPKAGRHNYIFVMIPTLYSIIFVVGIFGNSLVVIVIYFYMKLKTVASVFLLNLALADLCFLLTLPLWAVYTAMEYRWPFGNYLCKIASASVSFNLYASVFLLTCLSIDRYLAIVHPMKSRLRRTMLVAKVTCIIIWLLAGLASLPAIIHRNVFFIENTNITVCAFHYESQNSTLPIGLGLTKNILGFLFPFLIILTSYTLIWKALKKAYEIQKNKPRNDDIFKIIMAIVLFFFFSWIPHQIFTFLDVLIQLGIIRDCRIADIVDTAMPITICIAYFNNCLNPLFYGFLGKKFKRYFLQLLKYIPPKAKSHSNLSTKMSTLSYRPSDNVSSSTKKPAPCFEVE
# [12] = microbe, parasite or virus in culture; assay type: functional; details: Mycobacterium tuberculosis
# [13] = viability of PTEN-deleted HCT116 cells – cell-based, HCT116 PTEN knockout, dose response (AID 1047); assay type: functional;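 note: HCT116 colon tumor cells with PTEN knocked out; cells exposed to compound for 60 hours before readout; potency for loss of cell viability measured by luminescence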
# [14] = viability of HCT116 lacking mutant beta-catenin – cell-based, human colon tumor, dose response (AID 1045); assay type: functional;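 note: HCT116 colon tumor cells with beta catenin knocked out; cells exposed to compound for 60 hours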
# [15] = target: G-protein coupled receptor 55 (Homo sapiens, UniProt Q9Y2T6); test: selective activators of receptor GPR55 – imaging, U2OS cells, beta-arrestin-GFP redistribution, primary screen (AID 1961); assay type: functional
# G-protein coupled receptor 55, sequence (Q9Y2T6 whole entry): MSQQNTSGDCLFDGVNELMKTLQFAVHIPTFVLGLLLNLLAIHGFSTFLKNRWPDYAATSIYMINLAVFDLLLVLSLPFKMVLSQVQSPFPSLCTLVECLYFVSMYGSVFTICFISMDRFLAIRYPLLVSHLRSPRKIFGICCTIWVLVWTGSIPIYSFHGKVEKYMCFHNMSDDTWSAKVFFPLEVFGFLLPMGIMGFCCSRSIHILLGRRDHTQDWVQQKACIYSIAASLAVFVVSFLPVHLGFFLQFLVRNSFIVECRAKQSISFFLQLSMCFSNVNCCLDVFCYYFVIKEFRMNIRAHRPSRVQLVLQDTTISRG
# Cytochrome P450 2C9 = Cytochrome P450 2C9 (Homo sapiens, UniProt P11712)
# HEK293 [16] = test: inhibition of NOD1-driven NF-kB reporter – cell-based, luminescence, uHTS, primary screen (AID 1578); assay type: functional; details: Homo sapiens
# HEK293 [17] = test: cells; assay type: functional, cell-based; details: Homo sapiens
# HEK293 [18] = test: cells; assay type: functional, cell-based; details: Homo sapiens; remark: listed apart in the source
# HEK293 [19] = test: NOD2 signaling inhibitors in MDP-stimulated cells, cell-based, uHTS, luminescence (AID 2001); assay type: functional; details: Homo sapiens
# Aminopeptidase N = target: T2, Aminopeptidase N (Plasmodium falciparum FcB1/Columbia, UniProt O96935); test: malaria alanyl aminopeptidase activity blockers – biochemical, fluorogenic H-Leu-NHMec substrate, 1536-well (AID 1445); parameters: species or system Plasmodium falciparum 3D7, 3D7
# T2 sequence (O96935 whole entry): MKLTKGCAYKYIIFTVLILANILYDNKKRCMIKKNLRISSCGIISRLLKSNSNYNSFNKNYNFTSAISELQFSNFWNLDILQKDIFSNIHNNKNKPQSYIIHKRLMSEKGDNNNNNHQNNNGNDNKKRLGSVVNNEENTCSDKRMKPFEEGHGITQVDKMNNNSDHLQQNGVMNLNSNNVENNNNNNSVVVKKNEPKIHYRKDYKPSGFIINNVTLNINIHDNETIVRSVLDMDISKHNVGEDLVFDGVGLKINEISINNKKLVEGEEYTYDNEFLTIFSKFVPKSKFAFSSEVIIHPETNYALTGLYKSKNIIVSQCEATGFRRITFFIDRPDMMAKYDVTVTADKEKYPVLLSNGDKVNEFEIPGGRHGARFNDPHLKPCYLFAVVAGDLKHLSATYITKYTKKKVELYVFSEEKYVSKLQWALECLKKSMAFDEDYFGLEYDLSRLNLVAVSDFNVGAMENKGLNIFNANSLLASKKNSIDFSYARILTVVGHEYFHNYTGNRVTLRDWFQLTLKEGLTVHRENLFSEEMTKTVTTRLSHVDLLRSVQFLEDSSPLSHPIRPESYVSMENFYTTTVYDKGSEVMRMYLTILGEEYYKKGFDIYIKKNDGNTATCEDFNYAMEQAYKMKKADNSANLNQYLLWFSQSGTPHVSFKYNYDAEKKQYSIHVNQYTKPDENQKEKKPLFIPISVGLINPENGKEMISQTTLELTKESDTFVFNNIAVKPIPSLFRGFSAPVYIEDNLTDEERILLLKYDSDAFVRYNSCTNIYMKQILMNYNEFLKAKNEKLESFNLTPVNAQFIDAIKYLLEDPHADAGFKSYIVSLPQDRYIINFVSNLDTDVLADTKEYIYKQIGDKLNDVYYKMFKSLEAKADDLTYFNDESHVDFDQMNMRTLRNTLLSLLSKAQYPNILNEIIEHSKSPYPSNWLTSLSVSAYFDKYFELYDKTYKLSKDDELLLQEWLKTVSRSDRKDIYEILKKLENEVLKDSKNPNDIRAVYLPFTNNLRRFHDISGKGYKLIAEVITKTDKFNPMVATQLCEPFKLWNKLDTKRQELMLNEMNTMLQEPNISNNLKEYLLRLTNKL
# [20] = target: DNA dC->dU-editing enzyme APOBEC-3A (Homo sapiens, UniProt P31941); test: A3A deaminase inhibition for selectivity – biochemical, dose response (AID 504722); assay type: functional
# DNA dC->dU-editing enzyme APOBEC-3A, sequence (P31941 whole entry): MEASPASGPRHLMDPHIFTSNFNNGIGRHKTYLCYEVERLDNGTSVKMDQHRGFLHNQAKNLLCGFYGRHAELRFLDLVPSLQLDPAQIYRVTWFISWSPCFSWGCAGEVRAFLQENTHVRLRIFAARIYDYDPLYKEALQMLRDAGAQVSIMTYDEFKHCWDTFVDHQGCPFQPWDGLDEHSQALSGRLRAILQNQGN
# [21] = target: DNA dC->dU-editing enzyme APOBEC-3G (Homo sapiens, UniProt Q9HC16); test: Dose Response confirmation of small molecule APOBEC3G DNA Deaminase Inhibitors via a fluorescence-based single-stranded DNA deaminase assay. [Related pubchem assays (depositor defined):AID493012, AID493028]; assay type: functional
# DNA dC->dU-editing enzyme APOBEC-3G, sequence (Q9HC16 whole entry): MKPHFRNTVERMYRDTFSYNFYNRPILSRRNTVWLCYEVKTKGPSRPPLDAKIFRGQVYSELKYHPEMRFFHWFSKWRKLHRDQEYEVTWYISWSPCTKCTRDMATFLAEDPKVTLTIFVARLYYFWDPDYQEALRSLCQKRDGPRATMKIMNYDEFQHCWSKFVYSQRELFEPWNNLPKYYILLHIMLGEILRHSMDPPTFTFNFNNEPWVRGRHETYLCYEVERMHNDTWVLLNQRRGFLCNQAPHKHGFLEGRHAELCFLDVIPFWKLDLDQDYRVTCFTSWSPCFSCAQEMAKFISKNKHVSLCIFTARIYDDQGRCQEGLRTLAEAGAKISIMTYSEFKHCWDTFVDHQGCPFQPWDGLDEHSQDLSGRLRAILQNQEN
structure (smiles),measurement,setting,value
Cc1csc(NC(=O)CSc2nc3sc(C)c(C)c3c(=O)[nH]2)n1,IC50,[1],24.3 µM (active)
same,IC50,[2],> 100 µM (inactive)
same,IC50,Prothrombin,43.6 µM (active)
CCn1c(=O)cc(SCC(=O)N2CCN(Cc3ccc4c(c3)OCO4)CC2)c2ccccc21,EC50,[3],> 79.4 µM (inactive)
same,EC50,[4],> 79.4 µM (not active)
same,EC50,[5],> 79.4 µM (not active)
CCc1cc(=O)oc2cc(C)cc(O)c12,EC50,[3],> 79.4 µM (inactive)
same,EC50,[4],> 79.4 µM (not active)
same,EC50,[5],21.1 µM (not active)
CC1CC(N(C(=O)c2ccc(Cl)cc2)c2ccccc2)c2ccccc2N1C(=O)c1ccco1 (centres undefined),CC50,Vero,15.1 µM (active)
COc1ccccc1C1C2=C(O)OCC2=Nc2cc3c(cc21)OCO3 (centres undefined),EC50,BJ [6],6.64 µM (inconclusive)
same,EC50,BJ [7],15.2 µM (inconclusive)
same,EC50,BJ [8],9.65 µM (inconclusive)
same,EC50,[9],9.6 µM (inconclusive)
same,EC50,BJ [10],< 0.104 µM (active)
Cc1ccc(OCC(=O)OCC(=O)c2cccc([N+](=O)[O-])c2)cc1C,EC50,Beta-galactosidase,> 40 µM (inactive)
same,IC50,[11],> 40 µM (not active)
CCCCC(=O)Nc1sc2c(c1C(=O)OCC)CCC(C=O)=C2Cl,CC50,[12],> 40 µM (active)
same,EC50,[13],5.83 µM (active)
same,EC50,[14],5.91 µM (active)
same,EC50,[15],> 32 µM (inactive)
same,AC50,Cytochrome P450 2C9,7.94 µM (inconclusive)
CN(C)S(=O)(=O)c1ccc(C(=O)Nc2nc(-c3cc4ccccc4o3)cs2)cc1,EC50,HEK293 [16],> 20 µM (inactive)
same,IC50,HEK293 [17],3.09 µM (active)
same,IC50,HEK293 [18],> 20 µM (inactive)
same,IC50,HEK293 [19],2.85 µM (active)
CCCCc1cc(=O)oc2c(CN(C)C)c(O)ccc12,IC50,Aminopeptidase N,30.2 µM (active)
Cc1cc(-c2nnc(S)n2-c2ccc(C)c(C)c2)no1,IC50,[20],> 100 µM (inactive)
same,IC50,[21],8.07 µM (active)
C=CCn1c(=O)c2ccccc2n2c(S)nnc12,IC50,[20],> 100 µM (inactive)
same,IC50,[21],2.61 µM (active)
CCOc1ccc(CCNC(=O)CSc2cc(=O)n(C)c3ccccc23)cc1OCC,EC50,[3],> 79.4 µM (inactive)
same,EC50,[4],> 79.4 µM (not active)
same,EC50,[5],> 79.4 µM (not active)
